Common to all, as to assay: MIC in vitro, agar diffusion well method
Holding throughout (type): cell-based

Test [1] has as its system Bacillus megaterium ATCC 8011. The conditions noted are these: Bacillus megaterium ATCC 8011, agar diffusion well method. An excerpt: (§1) Minimal inhibitory concentration (mcg/ml)
(§2) *As determined by an agar diffusion well method.

In test [2] the test system is Bacillus sp. E ATCC 27359. The conditions noted are these: Bacillus sp. E ATCC 27359, agar diffusion well method.
Description: as §1, §2

Test [3] relates to Bacillus sp. TA ATCC 27860. The conditions noted are these: Bacillus sp. TA ATCC 27860, agar diffusion well method.
Description: as §1, §2

In test [4] the test system is Bacillus subtilis ATCC 558. The following applies: Bacillus subtilis ATCC 558, agar diffusion well method.
Description: as §1, §2

Test [5] has as its system Candida albicans NRRL 477. The conditions noted are these: Candida albicans NRRL 477, agar diffusion well method.
Description: as §1, §2
(A growth-free zone around the sample is the usual read-out of agar diffusion tests.)

Test [6] concerns Mycobacterium phlei ATCC 355. The following applies: Mycobacterium phlei ATCC 355, agar diffusion well method.
Description: as §1, §2

Test [7] deals with Paecilomyces varioti ATCC 28820. The following applies: Paecilomyces varioti ATCC 28820, agar diffusion well method.
Description: as §1, §2

Test [8] relates to Penicillium digitatum ATCC 26821. The conditions noted are these: Penicillium digitatum ATCC 26821, agar diffusion well method.
Description: as §1, §2

Test [9] has as its system Saccharomyces cerevisiae ATCC 4226. The following applies: Saccharomyces cerevisiae ATCC 4226, agar diffusion well method.
Description: as §1, §2

Test [10] concerns Staphylococcus aureus ATCC 6538P.
Description: as §1, §2

Test [11] concerns Streptococcus faecium ATCC 8043. The conditions noted are these: Streptococcus faecium ATCC 8043, agar diffusion well method.
Description: as §1, §2

Test [12] concerns Streptomyces cellulosae ATCC 3313. The following applies: Streptomyces cellulosae ATCC 3313, agar diffusion well method.
Description: as §1, §2

Each structure is given as a SMILES string. Converted amounts (≈) assume the structure as drawn.

As for `CC[C@H](C(=O)[C@@H](C)[C@@H](O)[C@H](C)[C@H]1O[C@@](O)(CC)[C@@H](C)C[C@@H]1C)[C@H]1O[C@](C)(C23OC(C)C(CC)(CC2C)O3)C[C@@H]1C` (stereo partly drawn) [Antibiotic X-14889D], the Minimal inhibitory concentration in test [1] amounted to 1000 µg/mL (≈ 1760 µM); in [2], 7.9 µg/mL (≈ 13.9 µM); in test [3], 1000 µg/mL (≈ 1760 µM); in test [4], 1000 µg/mL (≈ 1760 µM); in test [5], 1000 µg/mL (≈ 1760 µM); in test [6], 1000 µg/mL (≈ 1760 µM). Besides, the Minimal inhibitory concentration in [7] worked out at 1000 µg/mL (≈ 1760 µM); in test [8], 1000 µg/mL (≈ 1760 µM); in [9], 1000 µg/mL (≈ 1760 µM); in [10], 125 µg/mL (≈ 221 µM); in test [11], 125 µg/mL (≈ 221 µM); in test [12], 1000 µg/mL (≈ 1760 µM).

Values taken from patent publication US4537956A, “Antibiotics X-14889 A, C and D” (Hoffmann-La Roche Inc., priority 1983, dated 1985).
